Reference: patent US8735398B2 (Bristol-Myers Squibb Company, priority 2009, dated 2014)

test system: HCV 1b genotype; assay: HCV replicon assay (HCV-neo replicon cells, wild-type); format: cell-based, Hepatitis C virus; conditions: HCV 1b genotype replicon; class symbol; read-out: EC50 Range against HCV 1b
Summary of the method: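 Inhibition was tested in replicon-bearing cells, both wild-type HCV-neo and lines with NS5A resistance substitutions, using the O'Boyle et al. 2005 replicon method or luciferase-reporter formats.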

Work on `O=C(Nc1ccc(-c2ccc(-c3ccc(NC(=O)[C@@H]4CCCN4C(=O)[C@H](O)c4ccccc4)cc3)o2)cc1)[C@@H]1CCCN1C(=O)[C@H](O)c1ccccc1` [JG-56, (2S,2′S)-N,N′-(2,5-furandiyldi-4,1-phenylene)bis(1-((2R)-2-hydroxy-2-phenylacetyl)-2-pyrrolidinecarboxamide)] yielded an EC50 of under 0.00457 µM.
In the case of `O=C(Nc1ccc(-c2ccc(-c3ccc(NC(=O)[C@@H]4CCCN4C(=O)[C@H](O)c4ccccc4)cc3)o2)cc1)[C@@H]1CCCN1C(=O)[C@H](O)c1ccccc1` [JG-57, (2S,2′S)-N,N′-(2,5-furandiyldi-4,1-phenylene)bis(1-((2R)-2-hydroxy-2-phenylacetyl)-2-pyrrolidinecarboxamide)], the EC50 is reported as 0.1 to 0.999 µM.

same assay, conditions: Hepatitis C virus, HCV 1b genotype replicon; class symbol; read-out: EC50 Range against HCV 1b

First: COc1cccc2c(C(=O)N3CCC[C@H]3C(=O)Nc3ccc(-c4nc[nH]c4-c4ccc(NC(=O)[C@@H]5CCCN5C(=O)c5nc(Cl)cc6c(OC)cccc56)cc4)cc3)nc(Cl)cc12 [JG-50, (2S,2′S)-N,N′-(1H-imidazole-4,5-diyldi-4,1-phenylene)bis(1-((3-chloro-5-methoxy-1-isoquinolinyl)carbonyl)-2-pyrrolidinecarboxamide)]
Second: COc1cccc2c(C(=O)N3CCC[C@H]3C(=O)Nc3ccc(-c4ccc(-c5ccc(NC(=O)[C@@H]6CCCN6C(=O)c6nc(Cl)cc7c(OC)cccc67)cc5)o4)cc3)nc(Cl)cc12 [JG-60, (2S,2′S)-N,N′-(2,5-furandiyldi-4,1-phenylene)bis(1-((3-chloro-5-methoxy-1-isoquinolinyl)carbonyl)-2-pyrrolidinecarboxamide)]
The EC50 of the first is lower: 0.1 to 0.999 µM for the first, 1 to 10 µM for the second. The first is the more potent here.

`O=C(Nc1ccc(-c2nc[nH]c2-c2ccc(NC(=O)[C@@H]3CCCN3C(=O)c3cc4ccccc4o3)cc2)cc1)[C@@H]1CCCN1C(=O)c1cc2ccccc2o1` [JG-51, (2S,2′S)-N,N′-(1H-imidazole-4,5-diyldi-4,1-phenylene)bis(1-(1-benzofuran-2-ylcarbonyl)-2-pyrrolidinecarboxamide)] and `O=C(Nc1ccc(-c2nc[nH]c2-c2ccc(NC(=O)[C@@H]3CCCN3C(=O)c3ccc4occc4c3)cc2)cc1)[C@@H]1CCCN1C(=O)c1ccc2occc2c1` [JG-52, (2S,2′S)-N,N′-(1H-imidazole-4,5-diyldi-4,1-phenylene)bis(1-(1-benzofuran-5-ylcarbonyl)-2-pyrrolidinecarboxamide)] fall in the same range of EC50: 0.1 to 0.999 µM for the first, 0.1 to 0.999 µM for the second.

First: C[C@@H](C(=O)N1CCC[C@H]1C(=O)Nc1ccc(-c2ccc(-c3ccc(NC(=O)[C@@H]4CCCN4C(=O)[C@H](C)c4ccccc4)cc3)o2)cc1)c1ccccc1 [JG-53, (2S,2′S)-N,N′-(2,5-furandiyldi-4,1-phenylene)bis(1-((2R)-2-phenylpropanoyl)-2-pyrrolidinecarboxamide)]
Second: CN(C)[C@@H](C(=O)N1CCC[C@H]1C(=O)Nc1ccc(-c2ccc(-c3ccc(NC(=O)[C@@H]4CCCN4C(=O)[C@H](O)c4ccccc4)cc3)o2)cc1)c1ccccc1 [JG-66, (2S)-1-((2R)-2-(dimethylamino)-2-phenylacetyl)-N-(4-(5-(4-((((2S)-1-((2R)-2-hydroxy-2-phenylacetyl)-2-pyrrolidinyl)carbonyl)amino)phenyl)-2-furyl)phenyl)-2-pyrrolidinecarboxamide]
The EC50 of the first is higher: 0.00457 to 0.099 µM for the first, under 0.00457 µM for the second. The second is the more potent here.

Compared with `O=C(Nc1ccc(-c2ccc(-c3ccc(NC(=O)[C@@H]4CCCN4C(=O)OCc4ccccc4)cc3)o2)cc1)[C@@H]1CCCN1C(=O)OCc1ccccc1` [JG-54, dibenzyl (2S,2′S)-2,2′-(2,5-furandiylbis(4,1-phenylenecarbamoyl))di(1-pyrrolidinecarboxylate)], `C[C@](O)(C(=O)N1CCC[C@H]1C(=O)Nc1ccc(-c2ccc(-c3ccc(NC(=O)[C@@H]4CCCN4C(=O)[C@](C)(O)c4ccccc4)cc3)o2)cc1)c1ccccc1` [JG-58, (2S,2′S)-N,N′-(2,5-furandiyldi-4,1-phenylene)bis(1-((2R)-2-hydroxy-2-phenylpropanoyl)-2-pyrrolidinecarboxamide)] is lower in EC50: 0.1 to 0.999 µM for the first, 0.00457 to 0.099 µM for the second. The second is the more potent here.

First: CC(=O)N1CCC[C@H]1C(=O)Nc1ccc(-c2ccc(-c3ccc(NC(=O)[C@@H]4CCCN4C(C)=O)cc3)o2)cc1 [JG-55, (2S,2′S)-N,N′-(2,5-furandiyldi-4,1-phenylene)bis(1-acetyl-2-pyrrolidinecarboxamide)]
Second: CC(O)(C(=O)N1CCC[C@H]1C(=O)Nc1ccc(-c2ccc(-c3ccc(NC(=O)[C@@H]4CCCN4C(=O)[C@@](C)(O)c4ccccc4)cc3)o2)cc1)c1ccccc1 (stereo partly drawn) [JG-59, (2S)-1-((2S)-2-hydroxy-2-phenylpropanoyl)-N-(4-(5-(4-((((2S)-1-(2-hydroxy-2-phenylpropanoyl)-2-pyrrolidinyl)carbonyl)amino)phenyl)-2-furyl)phenyl)-2-pyrrolidinecarboxamide]
The EC50 of the first is higher: 0.1 to 0.999 µM for the first, under 0.00457 µM for the second.

Compared with `O=C(Nc1ccc(-c2ccc(-c3ccc(NC(=O)[C@@H]4CCCN4C(=O)c4nc(Cl)cc5ccccc45)cc3)o2)cc1)[C@@H]1CCCN1C(=O)c1nc(Cl)cc2ccccc12` [JG-61, (2S,2′S)-N,N′-(2,5-furandiyldi-4,1-phenylene)bis(1-((3-chloro-1-isoquinolinyl)carbonyl)-2-pyrrolidinecarboxamide)], `O=C(Nc1ccc(-c2ccc(-c3ccc(NC(=O)[C@@H]4CCCN4C(=O)c4nccc5ccccc45)cc3)o2)cc1)[C@@H]1CCCN1C(=O)c1nccc2ccccc12` [JG-62, (2S,2′S)-N,N′-(2,5-furandiyldi-4,1-phenylene)bis(1-(1-isoquinolinylcarbonyl)-2-pyrrolidinecarboxamide)] is lower in EC50: 1 to 10 µM for the first, 0.1 to 0.999 µM for the second.

`CN(C)[C@@H](C(=O)N1CCC[C@H]1C(=O)Nc1ccc(-c2ccc(-c3ccc(NC(=O)[C@@H]4CCCN4C(=O)[C@@H](c4ccccc4)N(C)C)cc3)o2)cc1)c1ccccc1` [JG-63, (2S,2′S)-N,N′-(2,5-furandiyldi-4,1-phenylene)bis(1-((2R)-2-(dimethylamino)-2-phenylacetyl)-2-pyrrolidinecarboxamide)] and `COc1cccc2c(C(=O)N3CCC[C@H]3C(=O)Nc3ccc(-c4ccc(-c5ccc(NC(=O)[C@@H]6CCCN6C(=O)[C@@H](c6ccccc6)N(C)C)cc5)o4)cc3)nc(Cl)cc12` [JG-65, (2S)-1-((3-chloro-5-methoxy-1-isoquinolinyl)carbonyl)-N-(4-(5-(4-((((2S)-1-((2R)-2-(dimethylamino)-2-phenylacetyl)-2-pyrrolidinyl)carbonyl)amino)phenyl)-2-furyl)phenyl)-2-pyrrolidinecarboxamide] cannot be ordered by EC50: under 0.00457 µM for the first, under 0.00457 µM for the second.

First: COc1cccc2c(C(=O)N3CCC[C@H]3C(=O)Nc3ccc(-c4ccc(-c5ccc(NC(=O)[C@@H]6CCCN6C(=O)[C@H](O)c6ccccc6)cc5)o4)cc3)nc(Cl)cc12 [JG-64, (2S)-1-((3-chloro-5-methoxy-1-isoquinolinyl)carbonyl)-N-(4-(5-(4-((((2S)-1-((2R)-2-hydroxy-2-phenylacetyl)-2-pyrrolidinyl)carbonyl)amino)phenyl)-2-furyl)phenyl)-2-pyrrolidinecarboxamide]
Second: COc1cccc2c(C(=O)N3CCC[C@H]3C(=O)Nc3ccc(-c4ccc(-c5ccc(NC(=O)[C@@H]6CCCN6C(=O)[C@@H](O)c6ccccc6)cc5)o4)cc3)nc(Cl)cc12 [JG-68, (2S)-1-((3-chloro-5-methoxy-1-isoquinolinyl)carbonyl)-N-(4-(5-(4-((((2S)-1-((2S)-2-hydroxy-2-phenylacetyl)-2-pyrrolidinyl)carbonyl)amino)phenyl)-2-furyl)phenyl)-2-pyrrolidinecarboxamide]
The EC50 of the first is lower: 0.00457 to 0.099 µM for the first, 0.1 to 0.999 µM for the second.

In the case of `COc1cccc2c(C(=O)N3CCC[C@H]3C(=O)Nc3ccc(-c4ccc(-c5ccc(NC(=O)[C@@H]6CCCN6C(=O)[C@H](NC(C)=O)c6ccccc6)cc5)o4)cc3)nc(Cl)cc12` [JG-67, (2S)-1-((2R)-2-acetamido-2-phenylacetyl)-N-(4-(5-(4-((((2S)-1-((3-chloro-5-methoxy-1-isoquinolinyl)carbonyl)-2-pyrrolidinyl)carbonyl)amino)phenyl)-2-furyl)phenyl)-2-pyrrolidinecarboxamide], the EC50 is reported as 0.00457 to 0.099 µM.

same assay, conditions: Hepatitis C virus, HCV 1b genotype replicon; class symbols; read-out: EC50 Range against HCV 1b

`Cn1cc(C(=O)C(=O)N2CCC[C@H]2C(=O)Nc2ccc(-c3cnc(-c4ccc(NC(=O)[C@@H]5CCCN5C(=O)C(=O)c5cn(C)c6ccccc56)cc4)o3)cc2)c2ccccc21` [JR-1, (2S,2′S)-N,N′-(2,5-oxazolediyldi-4,1-phenylene)bis[1-[2-(1-methyl-1H-indol-3-yl)-1,2-dioxoethyl]-2-pyrrolidinecarboxamide]] and `O=C(Nc1ccc(-c2cnc(-c3ccc(NC(=O)[C@@H]4CCCN4C(=O)C(O)Cc4c[nH]c5ccccc45)cc3)o2)cc1)[C@@H]1CCCN1C(=O)C(O)Cc1c[nH]c2ccccc12` (stereo partly drawn) [JR-5, (2S,2′S)-N,N′-(2,5-oxazolediyldi-4,1-phenylene)bis[1-[2-hydroxy-3-(1H-indol-3-yl)-1-oxopropyl]-2-pyrrolidinecarboxamide]] fall in the same range of EC50: 0.1 to 0.999 µM for the first, 0.1 to 0.999 µM for the second.

`O=C(Nc1ccc(-c2cnc(-c3ccc(NC(=O)[C@@H]4CCCN4C(=O)C(O)C(F)(F)F)cc3)o2)cc1)[C@@H]1CCCN1C(=O)C(O)C(F)(F)F` (stereo partly drawn) [JR-2, (2S,2′S)-N,N′-(2,5-oxazolediyldi-4,1-phenylene)bis[1-(3,3,3-trifluoro-2-hydroxy-1-oxopropyl)-2-pyrrolidinecarboxamide]] and `Cn1cncc1C(O)C(=O)N1CCC[C@H]1C(=O)Nc1ccc(-c2cnc(-c3ccc(NC(=O)[C@@H]4CCCN4C(=O)C(O)c4cncn4C)cc3)o2)cc1` (stereo partly drawn) [JR-3, (2S,2′S)-N,N′-(2,5-oxazolediyldi-4,1-phenylene)bis[1-[hydroxy(1-methyl-1H-imidazol-5-yl)acetyl]-2-pyrrolidinecarboxamide]] fall in the same range of EC50: 0.1 to 0.999 µM for the first, 0.1 to 0.999 µM for the second.

`O=C(Nc1ccc(-c2cnc(-c3ccc(NC(=O)[C@@H]4CCCN4C(=O)C(O)Cc4cccnc4)cc3)o2)cc1)[C@@H]1CCCN1C(=O)C(O)Cc1cccnc1` (stereo partly drawn) [JR-4, (2S,2′S)-N,N′-(2,5-oxazolediyldi-4,1-phenylene)bis[1-[2-hydroxy-1-oxo-3-(3-pyridinyl)propyl]-2-pyrrolidinecarboxamide]] was tested, and the EC50 was 1 to 10 µM.

same assay, conditions: Hepatitis C virus, HCV 1b genotype replicon; read-out: EC50 1b

Compared with `O=C(Nc1ccc(-c2ccc(-c3ccc(NC(=O)[C@@H]4CCCN4C(=O)[C@H](O)c4ccccc4)cc3)o2)cc1)[C@@H]1CCCN1C(=O)[C@H](O)c1ccccc1` [JG-56, (2S,2′S)-N,N′-(2,5-furandiyldi-4,1-phenylene)bis(1-((2R)-2-hydroxy-2-phenylacetyl)-2-pyrrolidinecarboxamide)], `COc1cccc2c(C(=O)N3CCC[C@H]3C(=O)Nc3ccc(-c4ccc(-c5ccc(NC(=O)[C@@H]6CCCN6C(=O)[C@H](NC(C)=O)c6ccccc6)cc5)o4)cc3)nc(Cl)cc12` [JG-67, (2S)-1-((2R)-2-acetamido-2-phenylacetyl)-N-(4-(5-(4-((((2S)-1-((3-chloro-5-methoxy-1-isoquinolinyl)carbonyl)-2-pyrrolidinyl)carbonyl)amino)phenyl)-2-furyl)phenyl)-2-pyrrolidinecarboxamide] is higher in EC50: under 0.005 µM for the first, 0.0052 µM for the second.
